The target of data set [1] is T1, P-gp (Homo sapiens, UniProt P08183). The note with it: MDCK, 10 μM.
Data set [2] in a line: in vitro. The note with it: dog, MDCK, MDCK Perm.
Method: (§1) Permeabilities were also measured in a Madin-Darby canine kidney (MDCK) permeability assay, in which the passage of the compound through a semipermeable membrane coated with MDCK cells is measured.
Data set [3] is described as follows: Experimental octanol/water partition coefficient Log D (oct/w). The following applies: for logD: octanol/water, pH 7.4, LogD (oct/w).
Method: (§2) For each of these six pure compounds, calculated (atomistic) octanol/water partition coefficient (A Log P), aqueous solubility (Aq. Sol), PAMPA and MDCK permeabilities, experimental octanol/water partition coefficient (Log D (oct/w)), P-gp efflux ratios, microsomal stability, and serum protein binding were determined (Table 1 and FIG. 5).
Data set [4] in a line: Microsomal stability. The note with it: remaining rate after 30 min of incubation with pooled liver microsomes (0.1 mg/mL, rats); for remaining at 0.5 h: rat. It is filed as in vitro ADME. (Microsomes from liver hold many membrane-bound enzymes, among them those of drug oxidation.)
Data set [5] in a line: Serum protein binding. The note with it: bound fractions in rat plasma; for fraction unbound: rat, plasma. Type of data set: in vitro ADME.
The nature of data set [6]: Oral bioavailability in mice. Type of data set: in vivo. The note with it: for bioavailability / BA: mouse; for bioavailability: po. An excerpt: Based on their permeabilities in PAMPA and MDCK cells, the in vivo pharmacokinetics of 5 of these 6 pure compound library members were investigated (B03 was not included in the oral PK study, because of its low (small) PAMPA and MDCK permeabilities). […] To test whether metabolism and efflux were the main factors contributing to the low oral bioavailability (BA), mice were pretreated with either the CYP inhibitor […] (ABT), the P-gp inhibitor elacridar (GF120918), or a combination of both the CYP and P-gp inhibitors. […] Combining the inhibitors also produced oral bioavailabilities that reflected the compounds' relative PAMPA permeabilities.

Data set [7] in a line: Aqueous solubility, Japanese Pharmacopoeia Second Fluid (pH 6.8). Type of data set: physicochemical. The following applies: for Aq. Sol.: Japanese Pharmacopoeia Second Fluid (pH 6.8); for solubility: Japanese Pharmacopoeia Second Fluid.
Method: as §2
For data set [8], the target named is T1, P-gp. Kind of data set: in vitro. The following applies: MDCK, P-gp R-value.
Data set [9] is described as follows: PAMPA permeability of pure compounds under sink conditions. It is filed as in vitro ADME. The note with it: detergents in donor and acceptor wells (sink conditions); for Papp: PAMPA, read-out: PAMPA Perm. As for the experimental part: PAMPA permeability studies on these six pure compounds were performed initially under the same conditions as those used in the original library screen, using a concentration of 1 μM in the donor well based on the estimated concentration of each compound in the original library. […] Without being bound by theory, it was hypothesized that the pure compounds were precipitating in the donor well or adhering to the walls of the apparatus, and that as mixtures they could act as pseudo-detergents (or mutual blocking agents) to help prevent escape from solution (such as through aggregation or adsorption). Therefore, the PAMPA permeabilities of the pure compounds using detergents in the donor and acceptor wells as “sink” conditions were re-investigated. Using these conditions, the permeability trends were similar to those observed in the Libraries. […] The PAMPA permeabilities of the scaffold A compounds were high (large) across the entire A Log P range, whereas the permeabilities of scaffold B compounds trended upward (greater) along with A Log P.
(In general: The PAMPA barrier holds no transporters, so it reflects passive diffusion.)

The nature of data set [10]: PAMPA permeability under standard (library screen) conditions. It is filed as in vitro ADME. The following applies: pure compounds, donor well concentration 20 μM. An excerpt:
Libraries A and B were synthesized separately as mixtures using solid phase split-pool peptide synthesis, incorporating peptoid side chains as primary amines using the submonomer method. (Zuckermann R N et al. Efficient Method for the Preparation of Peptoids [Oligo(N-Substituted Glycines)] by Submonomer Solid-Phase Synthesis. J Am Chem Soc. (1992) 114, 10646-7. doi: DOI 10.1021/ja00052a076. PubMed PMID: WOS:A1992KD71700076.) The libraries were cleaved, cyclized in solution, and roughly purified using solid phase extraction on C18 media. Parallel artificial membrane permeability assays (PAMPA) were used to measure passive permeabilities; PAMPA permeabilities within each library varied parabolically as a function of A Log P (FIG. 2A).
PAMPA permeability studies on these six pure compounds were performed initially under the same conditions as those used in the original library screen, […] of each compound in the original library. […] Without being bound by theory, it was hypothesized that the pure compounds were precipitating in the donor well or adhering to the walls of the apparatus, and that as mixtures they could act as pseudo-detergents (or mutual blocking agents) to help prevent escape from solution (such as through aggregation or adsorption). […]

Data set [11] has as its system MDCK cells. The note with it: dog.
Method: as §1
Data set [12] in a line: physchem. The following applies: pH 7.4, LogD (oct/w).
Method: as §2
[13] abbreviates: in vivo, mice, oral, no inhibitors, read-out: Oral bioavailability, no inhib.
Where [14] appears, read: in vivo, mice, oral, pretreatment with 1-aminobenztriazole (CYP inhibitor), read-out: Oral bioavailability, +CYP inhib.
The mark [15] stands for this setting: in vivo, mice, oral, pretreatment with 1-aminobenztriazole and GF120918, read-out: Oral bioavailability, +CYP inhib. +P-gp inhib.
[16] abbreviates: not told, mice, oral, pretreatment with GF120918 (P-gp inhibitor), read-out: Oral bioavailability, +P-gp inhib.
Where [17] appears, read: pH 6.8, pure compounds, values in text, read-out: Aqueous solubility.
Where [18] appears, read: mice, oral, pretreatment with 1-aminobenztriazole and GF120918.
[19] abbreviates: pH 6.8, Japanese Pharmacopoeia Second Fluid (pH 6.8), read-out: Aq. Sol.

≈ marks a conversion by molar mass, not a printed value. Where “and” joins values, the source holds several entries; their conditions need not be identical. Equal entries are not always repeated. Where two headings read alike, the source gives them in different places. Marks after values point to notes of the source that are not given here. Square brackets hold non-standard residues; d marks the D form. Peptide text beside a SMILES is read from it. Gly(N-CH2-oxan-4-yl) = O=C(O)CNCC1CCOCC1; NCyclohexylmethylGly = O=C(O)CNCC1CCCCC1; NMeL = CN[C@@H](CC(C)C)C(=O)O; NMeA = CN[C@@H](C)C(=O)O; NEtG = CCNCC(=O)O A value given as a limit tells only on which side of the number the result lay.

T1 sequence (P08183 whole entry): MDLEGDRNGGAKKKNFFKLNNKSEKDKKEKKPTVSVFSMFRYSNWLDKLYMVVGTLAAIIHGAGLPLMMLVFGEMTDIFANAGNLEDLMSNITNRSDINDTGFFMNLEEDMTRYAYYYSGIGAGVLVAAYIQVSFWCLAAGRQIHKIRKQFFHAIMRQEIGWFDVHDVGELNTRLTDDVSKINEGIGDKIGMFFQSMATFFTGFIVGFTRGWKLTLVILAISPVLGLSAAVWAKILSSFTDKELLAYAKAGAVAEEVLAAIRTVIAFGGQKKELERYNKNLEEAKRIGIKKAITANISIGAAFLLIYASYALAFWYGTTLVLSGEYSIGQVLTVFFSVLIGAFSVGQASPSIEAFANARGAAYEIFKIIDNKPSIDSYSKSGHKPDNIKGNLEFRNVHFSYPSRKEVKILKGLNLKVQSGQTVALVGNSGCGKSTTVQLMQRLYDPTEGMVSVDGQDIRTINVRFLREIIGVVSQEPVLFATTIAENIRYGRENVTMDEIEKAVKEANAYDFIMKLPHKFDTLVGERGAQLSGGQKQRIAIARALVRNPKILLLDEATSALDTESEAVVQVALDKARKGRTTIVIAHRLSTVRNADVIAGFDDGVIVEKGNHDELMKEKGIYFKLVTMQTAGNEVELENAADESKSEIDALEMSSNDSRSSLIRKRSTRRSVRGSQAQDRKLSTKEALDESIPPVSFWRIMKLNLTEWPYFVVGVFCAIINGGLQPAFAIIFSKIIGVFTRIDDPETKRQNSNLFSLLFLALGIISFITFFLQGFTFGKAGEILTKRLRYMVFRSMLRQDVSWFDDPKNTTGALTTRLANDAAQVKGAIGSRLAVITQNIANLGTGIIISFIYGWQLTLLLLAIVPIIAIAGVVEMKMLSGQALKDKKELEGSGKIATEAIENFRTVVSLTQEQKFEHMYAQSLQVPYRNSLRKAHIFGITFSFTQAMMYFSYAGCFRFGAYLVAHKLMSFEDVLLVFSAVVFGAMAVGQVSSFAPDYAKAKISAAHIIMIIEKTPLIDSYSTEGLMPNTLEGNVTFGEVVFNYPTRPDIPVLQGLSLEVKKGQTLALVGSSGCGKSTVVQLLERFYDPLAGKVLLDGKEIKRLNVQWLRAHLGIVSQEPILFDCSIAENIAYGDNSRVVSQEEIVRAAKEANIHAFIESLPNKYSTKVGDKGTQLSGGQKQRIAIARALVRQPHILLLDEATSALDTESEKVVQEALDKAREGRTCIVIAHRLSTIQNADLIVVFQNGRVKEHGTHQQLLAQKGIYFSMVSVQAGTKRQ

As usually defined, the logD is the decadic logarithm of the distribution of all forms, ionised or not, between an organic phase and buffer at a given pH. Higher therefore signals higher lipophilicity. Broadly, the amount remaining is the share of the starting amount still present when the sample was taken. The term fraction unbound denotes the share of the substance not bound to proteins or other matrix. Broadly, the efflux ratio is a quotient of directional permeabilities that is used to spot active efflux. `CCN1CC(=O)N[C@@H](CC(C)C)C(=O)N(C)[C@@H](C)C(=O)N[C@@H](CC(C)C)C(=O)N2CCC[C@@H]2C(=O)N(CC2CCOCC2)CC(=O)N[C@@H](CC(C)C)C(=O)N(C)[C@@H](C)C(=O)N[C@@H](C)C(=O)N2CCC[C@@H]2C1=O` [Compound A03] (cyclo([NEtG]L[NMeA]L[dP][Gly(N-CH2-oxan-4-yl)]L[NMeA]A[dP])): the “P-gp R-value” in [1] amounted to 6.4. In addition, the Papp in data set [2] was 0.4 ×10⁻⁶ cm/s; in [9] it was 18 ×10⁻⁶ cm/s. In data set [3], this compound returned a logD of 2.9. This compound also had an amount remaining at 0.5 h in [4] of 64%. Besides, the “Microsomal Stability” value in data set [4] turned out to be 64%. This compound also showed a fraction unbound in [5] of 0.31. The bioavailability in data set [6] (in vivo, 30 mg/kg, oral dose 30 mg/kg, no inhibitors, based on AUC at 1 mg/kg IV dose, read-out: BA) turned out to be 11.5%; in [6] (in vivo, 100 mg/kg, oral dose 100 mg/kg, no inhibitors, based on AUC at 1 mg/kg IV dose, read-out: BA), 22.1%; in data set [6] (in vivo, 200 mg/kg, oral dose 200 mg/kg, no inhibitors, based on AUC at 1 mg/kg IV dose, read-out: BA), 49.8%; in data set [6] (setting [13]), 1%; in data set [6] (setting [14]) it was 2%; in data set [6] (setting [15]), 39%. The bioavailability in data set [6] (setting [16]) was found to be 4%. In addition, the BA in data set [6] (oral dose 3 mg/kg, no inhibitors, based on AUC at 1 mg/kg IV dose) is 1% and 0.99%; in data set [6] (oral dose 200 mg/kg, no inhibitors, based on AUC at 1 mg/kg IV dose), 50%. The “Aq. Sol.” value in data set [7] turned out to be 1.900 mg/mL. Further, in [7] (setting [17]), the solubility came to 1900 µg/mL (≈ 1870 µM). The efflux ratio at 10 μM in [8] was determined as 6. Moreover, in data set [9], the “PAMPA Perm.” value amounted to 17.2 ×10⁻⁶ cm/s.

For the compound `CCN1CC(=O)N[C@@H](CC(C)C)C(=O)N(C)[C@@H](C)C(=O)N[C@@H](CC(C)C)C(=O)N2CCC[C@@H]2C(=O)N(CC2CCOCC2)CC(=O)N[C@@H](CC(C)C)C(=O)N(C)[C@@H](C)C(=O)N[C@@H](Cc2ccccc2)C(=O)N2CCC[C@@H]2C1=O` [Compound A09] (cyclo([NEtG]L[NMeA]L[dP][Gly(N-CH2-oxan-4-yl)]L[NMeA]F[dP])), in data set [1], the “P-gp R-value” was found to be 46.9. Moreover, the Papp in [2] was determined as 3.1 ×10⁻⁶ cm/s; in data set [9], 35 ×10⁻⁶ cm/s. For the same compound, the logD in [3] came to 4.1. In addition, the “LogD (oct/w)” value in data set [3] (pH 7.4) was greater than 4.1. The compound further came in with an amount remaining at 0.5 h in [4] of 67%. In addition, the “Microsomal Stability” value in data set [4] is reported as 67%. Further, the PAMPA membrane transport entry in data set [10] was “some membrane transport was observed”. Further, the “Serum Protein Binding” value in data set [5] is 98%. This compound yielded a fraction unbound in [5] of 0.01. For the same compound, the “Oral bioavailability, +CYP inhib. +P-gp inhib.” value in [6] (setting [18]) is on record as 105^c %. Further, the bioavailability in data set [6] (setting [13]) is 2%; in [6] (setting [14]), 5%; in [6] (setting [15]) it was greater than 100%; in data set [6] (setting [16]), 22%. Besides, the “Aq. Sol.” value in data set [7] was 0.600 mg/mL. The results for the solubility in data set [7] (setting [19]) and in [7] (setting [17]) were 640 µg/mL (≈ 586 µM) and 600 µg/mL (≈ 550 µM), respectively. The efflux ratio at 10 μM in [8] turned out to be 43. The “PAMPA Perm.” value in data set [9] was found to be 35.7 ×10⁻⁶ cm/s.

Take `CCN1CC(=O)N[C@@H](CC(C)C)C(=O)N2CCC[C@@H]2C(=O)N(C)[C@@H](CC(C)C)C(=O)N[C@@H](C)C(=O)N(CC2CCOCC2)CC(=O)N[C@@H](Cc2ccccc2)C(=O)N2CCC[C@@H]2C(=O)N(C)[C@@H](CC(C)C)C(=O)N[C@@H](C)C1=O` [Compound B09] (cyclo(A[NEtG]L[dP][NMeL]A[Gly(N-CH2-oxan-4-yl)]F[dP][NMeL])): the “P-gp R-value” in data set [1] was found to be 10. Further, in [4], the fraction remaining at 0.5 h was 90% and the “Microsomal Stability” value came to 90%. In addition, the “MDCK Perm.” value in data set [11] was 0.4 ×10⁻⁶ cm/s. The logD in data set [12] was determined as 3.6. In [6] (setting [18]), the “Oral bioavailability, +CYP inhib. +P-gp inhib.” value is given as 14%. Also, the “Oral bioavailability, +P-gp inhib.” value in data set [6] (mice, oral, pretreatment with GF120918 (P-gp inhibitor)) stood at 3%. In data set [6] (setting [13]), the bioavailability worked out at 0.7%. In data set [6] (setting [14]), the bioavailability stood at 1.5%. Moreover, the “Aq. Sol.” value in data set [7] was found to be 2.200 mg/mL. The solubility in [7] (setting [17]) is 2200 µg/mL (≈ 2020 µM). Besides, in [9], the Papp came to 0.7 ×10⁻⁶ cm/s and the “PAMPA Perm.” value is 1.4 ×10⁻⁶ cm/s.

Take `CCN1CC(=O)N[C@@H](CC(C)C)C(=O)N2CCC[C@@H]2C(=O)N(C)[C@@H](CC(C)C)C(=O)N[C@@H](C)C(=O)N(CC2CCOCC2)CC(=O)N[C@@H](C)C(=O)N2CCC[C@@H]2C(=O)N(C)[C@@H](CC(C)C)C(=O)N[C@@H](C)C1=O` [Compound B03] (cyclo(A[NEtG]L[dP][NMeL]A[Gly(N-CH2-oxan-4-yl)]A[dP][NMeL])): the Papp in [2] came out at 0.3 ×10⁻⁶ cm/s. Moreover, in data set [3], the log distribution coefficient (logD) is 2.1. Moreover, in data set [4], the share remaining at 0.5 h came out at 94% and the “Microsomal Stability” value is given as 94%. Also, in data set [5], the “Serum Protein Binding” value worked out at 56% and the fraction unbound was 0.43. Also, the “Aq. Sol.” value in data set [7] stood at 1.900 mg/mL. Also, the solubility in data set [7] (setting [17]) was determined as 1900 µg/mL (≈ 1870 µM). Moreover, the efflux ratio at 10 μM in [8] was 1.4.

With `CCN1CC(=O)N[C@@H](CC(C)C)C(=O)N(C)[C@@H](C)C(=O)N[C@@H](CC(C)C)C(=O)N2CCC[C@@H]2C(=O)N(CC2CCCCC2)CC(=O)N[C@@H](CC(C)C)C(=O)N(C)[C@@H](C)C(=O)N[C@@H](Cc2ccccc2)C(=O)N2CCC[C@@H]2C1=O` [Compound A08] (cyclo(F[dP][NEtG]L[NMeA]L[dP][NCyclohexylmethylGly]L[NMeA])), the Papp in data set [2] was 25 ×10⁻⁶ cm/s; in data set [9], 18 ×10⁻⁶ cm/s. For the same compound, the logD in [3] worked out at 4.1. Also, the fraction remaining at 0.5 h in [4] is 33%. In addition, the “Microsomal Stability” value in data set [4] was determined as 33%. The “MDCK Perm.” value in [11] worked out at 24.7 ×10⁻⁶ cm/s. Further, the “Serum Protein Binding” value in data set [5] is 99% and >99.8%. The bioavailability is 5% in data set [6] (setting [13]), 31% in data set [6] (setting [14]), 59% in [6] (setting [15]) and 7% in [6] (setting [16]). The “Aq. Sol.” value in data set [7] is on record as 0.070 mg/mL. For the same compound, the results for the solubility in [7] (setting [19]) and in data set [7] (setting [17]) were 6.8 µg/mL (≈ 6.24 µM) and 70 µg/mL (≈ 64.3 µM), respectively. The “PAMPA Perm.” value in [9] amounted to 18.8 ×10⁻⁶ cm/s.
